# From patent publication US8846710B2, “Method of preferentially inducing the biosynthesis of interferon” (3M Innovative Properties Company, priority 2005, dated 2014)
# Like-named read-outs stand apart in the source and are kept apart here.
# Tests used:
# [1] = tested on: interferon (α) (IFN-α); assay: Cytokine induction in human cells: IFN-α secreted by PBMC into culture media (ELISA); type: cell-based; parameters: key to Maximal Response (pg/mL) IFN: If any negative values result from background subtraction, the reading is reported as “*”, and is noted as not reliably detectable; conditions: for Maximal Response IFN / Minimum Effective Concentration IFN / minimal effective concentration: human PBMC; for Maximal Response IFN / Minimum Effective Concentration IFN: median where tested in more than one experiment; for Maximal Response (pg/mL) IFN: maximal response in dose response curve, median; for minimal effective concentration: lowest tested concentration inducing IFN-α over usually 20 pg/mL, median where more than one experiment, read-out: Minimum Effective Concentration (μM) IFN
# Outline: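 IFN-α secreted by density-gradient-isolated PBMC (final 2×10^6 cells/mL) was quantified by ELISA after 18–24 h compound exposure at 37 °C, typically 30-0.014 μM in 3-fold steps with ≤1% DMSO. Readings corrected for background and reference-compound variability; lowest concentration above usually 20 pg/mL reported, plus maximal response (pg/mL).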
# [2] = tested on: tumor necrosis factor (α) (TNF-α); assay: Cytokine induction in human cells: TNF-α secreted by PBMC into culture media (ORIGEN M-Series immunoassay); type: cell-based; parameters: key to Maximal Response (pg/mL) TNF / Maximal Response TNF: If any negative values result from background subtraction, the reading is reported as “*”, and is noted as not reliably detectable; conditions: for Minimum Effective Concentration TNF / Maximal Response TNF / minimal effective concentration: human PBMC; for Minimum Effective Concentration TNF: median where tested in more than one experiment; for Maximal Response TNF / Maximal Response (pg/mL) TNF: median; for Maximal Response (pg/mL) TNF: maximal response in dose response curve; for minimal effective concentration: lowest tested concentration inducing TNF-α over usually 40 pg/mL, median where more than one experiment, read-out: Minimum Effective Concentration (μM) TNF
# Outline: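 Secreted TNF-α (pg/mL) was quantified by ORIGEN M-Series immunoassay after 18 to 24 hours culture at 37° C of human PBMC (2×10^6 cells/mL final) with test compound (usually 30-0.014 μM, 3-fold series, DMSO ≤1%). Values were corrected for DMSO or experimental background and a reference-compound ratio, giving a minimum effective concentration.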
# [3] = Table 11, * = TNF below experimental background of 40 pg/mL
# [4] = Table 12, * = below the experimental background of 40 pg/mL
# [5] = Table 8, background-subtracted, reference-adjusted
# [6] = Table 10, * = below experimental background level
structure (smiles),measurement,setting,value
CC(C)(CNC(=O)Nc1ccccc1)Cn1c(CCO)nc2c(N)nc3ccccc3c21 [Example 130],Maximal Response IFN,[1]; Table 11,8361 pg/mL
same,Minimum Effective Concentration IFN,[1]; Table 11,0.014 µM
same,Minimum Effective Concentration TNF,[2]; Table 11,3.33 µM
same,Maximal Response TNF,[2]; [3],2001 pg/mL
CC(C)(CNS(C)(=O)=O)Cn1c(CCO)nc2c(N)nc3ccccc3c21 [Example 131],Maximal Response IFN,[1]; Table 11,8361 pg/mL
same,Minimum Effective Concentration IFN,[1]; Table 11,0.37 µM
same,Minimum Effective Concentration TNF,[2]; Table 11,>30 µM
same,Maximal Response TNF,[2]; [3],*
Nc1nc2ccccc2c2c1nc(CCO)n2CCCNC(=O)c1ccccc1 [Example 132],Maximal Response IFN,[1]; Table 11,8361 pg/mL
same,Minimum Effective Concentration IFN,[1]; Table 11,0.37 µM
same,Minimum Effective Concentration TNF,[2]; Table 11,>30 µM
same,Maximal Response TNF,[2]; [3],*
CN(CCOCCn1c(CCO)nc2c(N)nc3ccccc3c21)S(C)(=O)=O [Example 133],Maximal Response IFN,[1]; Table 11,8361 pg/mL
same,Minimum Effective Concentration IFN,[1]; Table 11,0.37 µM
same,Minimum Effective Concentration TNF,[2]; Table 11,>30 µM
same,Maximal Response TNF,[2]; [3],*
CN(CCOCCn1c(CCO)nc2c(N)nc3ccccc3c21)C(=O)c1ccccc1 [Example 134],Maximal Response IFN,[1]; Table 11,8361 pg/mL
same,Minimum Effective Concentration IFN,[1]; Table 11,3.33 µM
same,Minimum Effective Concentration TNF,[2]; Table 11,30 µM
same,Maximal Response TNF,[2]; [3],315 pg/mL
CN(CCOCCn1c(CCO)nc2c(N)nc3ccccc3c21)C(=O)C1CCCCC1 [Example 135],Maximal Response IFN,[1]; Table 11,2464 pg/mL
same,Minimum Effective Concentration IFN,[1]; Table 11,3.33 µM
same,Minimum Effective Concentration TNF,[2]; Table 11,30 µM
same,Maximal Response TNF,[2]; [3],146 pg/mL
CCNC(=O)NCCn1c(CCO)nc2c(N)nc3ccccc3c21 [Example 137],Maximal Response IFN,[1]; Table 11,801 pg/mL
same,Minimum Effective Concentration IFN,[1]; Table 11,30 µM
same,Minimum Effective Concentration TNF,[2]; Table 11,30 µM
same,Maximal Response TNF,[2]; [3],73 pg/mL
CC(C)CC(=O)NCCn1c(CCO)nc2c(N)nc3ccccc3c21 [Example 138],Maximal Response IFN,[1]; Table 11,36 pg/mL
same,Minimum Effective Concentration IFN,[1]; Table 11,3.33 µM
same,Minimum Effective Concentration TNF,[2]; Table 11,>30 µM
same,Maximal Response TNF,[2]; [3],*
CCCCCCCCCCCCCCCC(=O)NCCOCCn1c(CCO)nc2c(N)nc3ccccc3c21 [Example 140],Maximal Response IFN,[1]; Table 11,673 pg/mL
same,Minimum Effective Concentration IFN,[1]; Table 11,1.11 µM
same,Minimum Effective Concentration TNF,[2]; Table 11,>30 µM
same,Maximal Response TNF,[2]; [3],*
"CC(C)C(=O)NCCCn1c(CCO)nc2c(N)nc3ccccc3c21 [Example 141, N-{3-[4-Amino-2-(2-hydroxyethyl)-1H-imidazo[4,5-c]quinolin-1-yl]propyl}-2-methylpropionamide]",Maximal Response IFN,[1]; Table 11,14046 pg/mL
same,Maximal Response TNF,[2]; [3],243 pg/mL
"CC(C)NC(=O)NC(C)(C)Cn1c(CO)nc2c(N)nc3ccccc3c21 [Example 142, 1-[2-(4-Amino-2-hydroxymethyl-1H-imidazo[4,5-c]quinolin-1-yl)-1,1-dimethylethyl]-3-(1-methylethyl)urea]",Maximal Response IFN,[1]; Table 11,1554 pg/mL
same,Maximal Response TNF,[2]; [3],*
"CC(C)(Cn1c(CO)nc2c(N)nc3cccnc3c21)NC(=O)C1CCCCC1 [Example 143, N-[2-(4-Amino-2-hydroxymethyl-1H-imidazo[4,5-c][1,5]naphthyridin-1-yl)-1,1-dimethylethyl]cyclohexanecarboxamide]",Maximal Response IFN,[1]; Table 12,1467 pg/mL
same,Maximal Response TNF,[2]; [4],798 pg/mL
"CC(C)(Cn1c(CO)nc2c(N)nc3cccnc3c21)NS(C)(=O)=O [Example 144, N-[2-(4-Amino-2-hydroxymethyl-1H-imidazo[4,5-c][1,5]naphthyridin-1-yl)-1,1-dimethylethyl]methanesulfonamide]",Maximal Response IFN,[1]; Table 12,1914 pg/mL
same,Maximal Response TNF,[2]; [4],170 pg/mL
"CS(=O)(=O)NCCCCn1c(CCO)nc2c(N)nc3cccnc3c21 [Example 145, N-{4-{4-Amino-2-(2-hydroxyethyl)-1H-imidazo[4,5-c][1,5]naphthyridin-1-yl]butyl}methanesulfonamide]",Maximal Response IFN,[1]; Table 12,3008 pg/mL
same,Maximal Response TNF,[2]; [4],7 pg/mL
"CS(=O)(=O)NCCn1c(CO)nc2c(N)nc3cccnc3c21 [Example 146, N-[2-(4-Amino-2-hydroxymethyl-1H-imidazo[4,5-c][1,5]naphthyridin-1-yl)ethyl]methanesulfonamide]",Maximal Response IFN,[1]; Table 12,1520 pg/mL
same,Maximal Response TNF,[2]; [4],*
"CS(=O)(=O)NCCn1c(CCO)nc2c(N)nc3cccnc3c21 [Example 147, N-{2-[4-Amino-2-(2-hydroxyethyl)-1H-imidazo[4,5-c][1,5]naphthyridin-1-yl]ethyl}methanesulfonamide]",Maximal Response IFN,[1]; Table 12,49 pg/mL
same,Maximal Response TNF,[2]; [4],*
"CC(C)(O)Cn1c(CO)nc2c(N)nc3cccnc3c21 [Example 148, 1-(4-Amino-2-hydroxymethyl-1H-imidazo[4,5-c][1,5]naphthyridin-1-yl)-2-methylpropan-2-ol]",Maximal Response (pg/mL) IFN,[1]; [5],3038 pg/mL
same,Maximal Response IFN,[1]; Table 12,2290 pg/mL
same,Maximal Response (pg/mL) TNF,[2]; [5],684 pg/mL
same,Maximal Response TNF,[2]; [4],1316 pg/mL
"CC(C)(O)Cn1c(CCO)nc2c(N)nc3cccnc3c21 [Example 149, 1-[4-Amino-2-(2-hydroxyethyl)-1H-imidazo[4,5-c][1,5]naphthyridin-1-yl]-2-methylpropan-2-ol]",Maximal Response (pg/mL) IFN,[1]; [5],1849 pg/mL
same,Maximal Response IFN,[1]; Table 12,2063 pg/mL
same,Maximal Response (pg/mL) TNF,[2]; [5],342 pg/mL
same,Maximal Response TNF,[2]; [4],331 pg/mL
Nc1nc2cc(-c3ccccc3)ccc2c2c1nc(CCO)n2CCCN1CCCC1=O [Example 156],minimal effective concentration,[1]; Table 10,>30 µM
same,Maximal Response (pg/mL) IFN,[1]; [6],*
same,minimal effective concentration,[2]; Table 10,>30 µM
same,Maximal Response (pg/mL) TNF,[2]; [6],*
CC(C)(O)Cn1c(CCO)nc2c(N)nc3cc(-c4ccccc4)ccc3c21 [Example 157],minimal effective concentration,[1]; Table 10,0.37 µM
same,Maximal Response (pg/mL) TNF,[2]; [6],67 pg/mL
CC(C)Cn1c(CCO)nc2c(N)nc3cc(-c4cccnc4)ccc3c21 [Example 158],minimal effective concentration,[1]; Table 10,0.37 µM
same,Maximal Response (pg/mL) TNF,[2]; [6],42 pg/mL
CC(C)Cn1c(CCO)nc2c(N)nc3cc(-c4cncc(CO)c4)ccc3c21 [Example 159],minimal effective concentration,[1]; Table 10,0.12 µM
same,minimal effective concentration,[2]; Table 10,10 µM
Nc1nc2cc(-c3cccnc3)ccc2c2c1nc(CCO)n2CCCN1CCCC1=O [Example 160],minimal effective concentration,[1]; Table 10,30 µM
same,Maximal Response (pg/mL) IFN,[1]; [6],109 pg/mL
same,minimal effective concentration,[2]; Table 10,>30 µM
same,Maximal Response (pg/mL) TNF,[2]; [6],*
Nc1nc2cc(-c3ccncc3)ccc2c2c1nc(CCO)n2CCCN1CCCC1=O [Example 161],minimal effective concentration,[1]; Table 10,>30 µM
same,Maximal Response (pg/mL) IFN,[1]; [6],*
same,minimal effective concentration,[2]; Table 10,>30 µM
same,Maximal Response (pg/mL) TNF,[2]; [6],*
CC(C)(O)Cn1c(CO)nc2c(N)nc3cc(-c4cccnc4)ccc3c21 [Example 163],minimal effective concentration,[1]; Table 10,0.37 µM
same,minimal effective concentration,[2]; Table 9,>30 µM
same,Maximal Response (pg/mL) TNF,"[2]; Table 9, * = below experimental background level of 40 pg/mL",*
same,minimal effective concentration,[2]; Table 10,10 µM
same,Maximal Response (pg/mL) TNF,[2]; [6],51 pg/mL
Cc1cccc(-c2ccc3c(c2)nc(N)c2nc(CO)n(CC(C)(C)O)c23)c1 [Example 164],minimal effective concentration,[1]; Table 10,30 µM
same,Maximal Response (pg/mL) IFN,[1]; [6],87 pg/mL
same,minimal effective concentration,[2]; Table 10,>30 µM
same,Maximal Response (pg/mL) TNF,[2]; [6],*
Cc1ccc(-c2ccc3c(c2)nc(N)c2nc(CO)n(CC(C)(C)O)c23)cc1 [Example 165],minimal effective concentration,[1]; Table 10,0.37 µM
same,minimal effective concentration,[2]; Table 10,0.37 µM
CC(C)(O)Cn1c(CO)nc2c(N)nc3cc(-c4cccc(O)c4)ccc3c21 [Example 168],minimal effective concentration,[1]; Table 10,0.37 µM
same,minimal effective concentration,[2]; Table 10,10 µM
CCCNC(=O)NCCCCn1c(CO)nc2c(N)nc3cc(-c4cccnc4)ccc3c21 [Example 195],Maximal Response (pg/mL) IFN,[1]; [6],5089 pg/mL
same,Maximal Response (pg/mL) TNF,[2]; [6],81 pg/mL
CCCC(=O)NCCCCn1c(CO)nc2c(N)nc3cc(-c4cccnc4)ccc3c21 [Example 196],minimal effective concentration,[1]; Table 10,0.12 µM
same,minimal effective concentration,[2]; Table 10,> 30 µM
Nc1nc2cc(-c3cccnc3)ccc2c2c1nc(CO)n2CCCCNC(=O)NC1CCCC1 [Example 197],Maximal Response (pg/mL) IFN,[1]; [6],4373 pg/mL
same,Maximal Response (pg/mL) TNF,[2]; [6],600 pg/mL
Nc1nc2cc(-c3cccnc3)ccc2c2c1nc(CO)n2CCCCNC(=O)C1CCCC1 [Example 198],Maximal Response (pg/mL) IFN,[1]; [6],2745 pg/mL
same,Maximal Response (pg/mL) TNF,[2]; [6],410 pg/mL
CC(C)C(=O)NCCCCn1c(CO)nc2c(N)nc3cc(-c4cccnc4)ccc3c21 [Example 199],Maximal Response (pg/mL) IFN,[1]; [6],5880 pg/mL
same,Maximal Response (pg/mL) TNF,[2]; [6],217 pg/mL
"CC(C)(Cn1c(CO)nc2c(N)nc3ccccc3c21)CS(C)(=O)=O [Example 364, {4-Amino-1-[2,2-dimethyl-3-(methylsulfonyl)propyl]-1H-imidazo[4,5-c]quinolin-2-yl}methanol]",Maximal Response IFN,[1]; Table 11,5343 pg/mL
same,Maximal Response TNF,[2]; [3],164 pg/mL
